Assay [1] has as its target 5-hydroxytryptamine receptor 7 (Homo sapiens, UniProt P34969).
In the next assay the target is T1, D(4) dopamine receptor (Homo sapiens, UniProt P21917).
T1 sequence (P21917 whole entry): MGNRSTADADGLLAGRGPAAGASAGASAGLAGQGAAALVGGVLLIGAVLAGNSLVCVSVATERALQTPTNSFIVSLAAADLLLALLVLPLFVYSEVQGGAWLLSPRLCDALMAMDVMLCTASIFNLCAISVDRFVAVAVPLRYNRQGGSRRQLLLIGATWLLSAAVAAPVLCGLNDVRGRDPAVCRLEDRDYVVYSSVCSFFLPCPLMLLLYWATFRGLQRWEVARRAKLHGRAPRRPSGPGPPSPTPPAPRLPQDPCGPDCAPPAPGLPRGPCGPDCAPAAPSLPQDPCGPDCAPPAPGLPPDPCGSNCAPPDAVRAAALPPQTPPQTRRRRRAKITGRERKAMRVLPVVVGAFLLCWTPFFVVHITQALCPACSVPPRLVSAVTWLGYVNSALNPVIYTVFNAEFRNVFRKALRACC

In another assay the target is T2, Androgen receptor (Rattus norvegicus, UniProt P15207).
T2 sequence (P15207 whole entry): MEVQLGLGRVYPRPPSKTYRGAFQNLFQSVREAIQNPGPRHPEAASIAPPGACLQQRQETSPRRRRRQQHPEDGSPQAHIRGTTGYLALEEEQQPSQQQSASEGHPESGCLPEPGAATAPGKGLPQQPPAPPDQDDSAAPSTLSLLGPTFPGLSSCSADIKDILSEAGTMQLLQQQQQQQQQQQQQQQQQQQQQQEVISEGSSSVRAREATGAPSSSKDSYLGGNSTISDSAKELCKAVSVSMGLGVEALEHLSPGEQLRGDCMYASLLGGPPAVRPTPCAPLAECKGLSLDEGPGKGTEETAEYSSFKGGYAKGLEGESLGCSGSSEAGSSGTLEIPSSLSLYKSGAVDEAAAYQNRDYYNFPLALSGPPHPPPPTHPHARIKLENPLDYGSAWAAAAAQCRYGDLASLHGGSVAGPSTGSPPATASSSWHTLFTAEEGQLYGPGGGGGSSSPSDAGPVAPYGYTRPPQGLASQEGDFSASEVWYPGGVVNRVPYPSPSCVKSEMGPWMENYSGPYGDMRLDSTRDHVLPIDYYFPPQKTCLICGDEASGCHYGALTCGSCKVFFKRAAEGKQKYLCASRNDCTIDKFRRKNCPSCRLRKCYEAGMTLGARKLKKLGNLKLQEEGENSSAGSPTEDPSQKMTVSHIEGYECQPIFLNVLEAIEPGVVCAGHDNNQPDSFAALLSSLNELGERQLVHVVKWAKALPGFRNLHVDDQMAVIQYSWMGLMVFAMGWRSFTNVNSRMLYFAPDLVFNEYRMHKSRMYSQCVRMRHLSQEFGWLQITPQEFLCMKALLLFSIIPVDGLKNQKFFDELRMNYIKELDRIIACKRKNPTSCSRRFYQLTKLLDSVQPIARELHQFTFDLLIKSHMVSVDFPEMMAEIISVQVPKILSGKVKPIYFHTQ
The format is functional.

For another assay, the target named is T3, Estrogen receptor (Homo sapiens, UniProt P03372).
T3 sequence (P03372 whole entry): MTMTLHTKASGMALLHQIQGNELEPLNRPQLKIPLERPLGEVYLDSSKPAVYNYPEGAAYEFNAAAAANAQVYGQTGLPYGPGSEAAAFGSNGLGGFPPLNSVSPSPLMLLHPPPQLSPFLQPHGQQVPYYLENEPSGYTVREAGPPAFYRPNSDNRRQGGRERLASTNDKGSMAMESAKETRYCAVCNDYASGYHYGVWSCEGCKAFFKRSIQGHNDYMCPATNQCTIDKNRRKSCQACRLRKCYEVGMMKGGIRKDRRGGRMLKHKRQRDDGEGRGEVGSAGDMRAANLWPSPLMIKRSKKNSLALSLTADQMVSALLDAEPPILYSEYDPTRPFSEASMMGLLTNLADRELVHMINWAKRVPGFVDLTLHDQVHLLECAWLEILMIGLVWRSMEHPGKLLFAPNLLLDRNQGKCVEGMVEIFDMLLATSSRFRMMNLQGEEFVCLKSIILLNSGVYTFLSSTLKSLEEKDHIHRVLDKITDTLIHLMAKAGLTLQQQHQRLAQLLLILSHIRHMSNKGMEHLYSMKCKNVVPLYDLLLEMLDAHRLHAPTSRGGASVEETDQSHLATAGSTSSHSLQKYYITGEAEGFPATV
The format is functional.

Another assay deals with D(1A) dopamine receptor (Homo sapiens, UniProt P21728).
Assay [2] has as its target Sodium channel protein type 5 subunit alpha (Homo sapiens, UniProt Q14524). The format is functional, cell-based.
For a further assay, the target named is Cannabinoid receptor 1 (Homo sapiens, UniProt P21554). The format is functional.
The target of a further assay is Substance-P receptor (Homo sapiens, UniProt P25103).
For assay [3], the target named is T4, Corticotropin-releasing factor receptor 1 (Homo sapiens, UniProt P34998).
T4 sequence (P34998 whole entry): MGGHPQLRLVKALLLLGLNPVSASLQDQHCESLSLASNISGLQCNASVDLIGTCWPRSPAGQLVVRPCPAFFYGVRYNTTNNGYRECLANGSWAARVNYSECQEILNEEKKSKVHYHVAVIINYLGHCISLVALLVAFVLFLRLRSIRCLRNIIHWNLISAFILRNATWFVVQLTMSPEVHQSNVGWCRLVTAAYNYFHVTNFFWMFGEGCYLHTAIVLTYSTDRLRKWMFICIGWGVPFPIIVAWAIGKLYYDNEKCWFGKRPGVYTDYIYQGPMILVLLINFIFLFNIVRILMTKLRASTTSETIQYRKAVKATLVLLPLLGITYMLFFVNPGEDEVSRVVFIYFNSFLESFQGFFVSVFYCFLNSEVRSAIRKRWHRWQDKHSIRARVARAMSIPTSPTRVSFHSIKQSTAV

Values joined by “and” are separate entries in the source; they are usually repeats but may differ in a detail not shown here. Equal entries are not always repeated.
Note: assay procedure not described here.

Sodium channel protein type 5 subunit alpha, sequence (Q14524 whole entry): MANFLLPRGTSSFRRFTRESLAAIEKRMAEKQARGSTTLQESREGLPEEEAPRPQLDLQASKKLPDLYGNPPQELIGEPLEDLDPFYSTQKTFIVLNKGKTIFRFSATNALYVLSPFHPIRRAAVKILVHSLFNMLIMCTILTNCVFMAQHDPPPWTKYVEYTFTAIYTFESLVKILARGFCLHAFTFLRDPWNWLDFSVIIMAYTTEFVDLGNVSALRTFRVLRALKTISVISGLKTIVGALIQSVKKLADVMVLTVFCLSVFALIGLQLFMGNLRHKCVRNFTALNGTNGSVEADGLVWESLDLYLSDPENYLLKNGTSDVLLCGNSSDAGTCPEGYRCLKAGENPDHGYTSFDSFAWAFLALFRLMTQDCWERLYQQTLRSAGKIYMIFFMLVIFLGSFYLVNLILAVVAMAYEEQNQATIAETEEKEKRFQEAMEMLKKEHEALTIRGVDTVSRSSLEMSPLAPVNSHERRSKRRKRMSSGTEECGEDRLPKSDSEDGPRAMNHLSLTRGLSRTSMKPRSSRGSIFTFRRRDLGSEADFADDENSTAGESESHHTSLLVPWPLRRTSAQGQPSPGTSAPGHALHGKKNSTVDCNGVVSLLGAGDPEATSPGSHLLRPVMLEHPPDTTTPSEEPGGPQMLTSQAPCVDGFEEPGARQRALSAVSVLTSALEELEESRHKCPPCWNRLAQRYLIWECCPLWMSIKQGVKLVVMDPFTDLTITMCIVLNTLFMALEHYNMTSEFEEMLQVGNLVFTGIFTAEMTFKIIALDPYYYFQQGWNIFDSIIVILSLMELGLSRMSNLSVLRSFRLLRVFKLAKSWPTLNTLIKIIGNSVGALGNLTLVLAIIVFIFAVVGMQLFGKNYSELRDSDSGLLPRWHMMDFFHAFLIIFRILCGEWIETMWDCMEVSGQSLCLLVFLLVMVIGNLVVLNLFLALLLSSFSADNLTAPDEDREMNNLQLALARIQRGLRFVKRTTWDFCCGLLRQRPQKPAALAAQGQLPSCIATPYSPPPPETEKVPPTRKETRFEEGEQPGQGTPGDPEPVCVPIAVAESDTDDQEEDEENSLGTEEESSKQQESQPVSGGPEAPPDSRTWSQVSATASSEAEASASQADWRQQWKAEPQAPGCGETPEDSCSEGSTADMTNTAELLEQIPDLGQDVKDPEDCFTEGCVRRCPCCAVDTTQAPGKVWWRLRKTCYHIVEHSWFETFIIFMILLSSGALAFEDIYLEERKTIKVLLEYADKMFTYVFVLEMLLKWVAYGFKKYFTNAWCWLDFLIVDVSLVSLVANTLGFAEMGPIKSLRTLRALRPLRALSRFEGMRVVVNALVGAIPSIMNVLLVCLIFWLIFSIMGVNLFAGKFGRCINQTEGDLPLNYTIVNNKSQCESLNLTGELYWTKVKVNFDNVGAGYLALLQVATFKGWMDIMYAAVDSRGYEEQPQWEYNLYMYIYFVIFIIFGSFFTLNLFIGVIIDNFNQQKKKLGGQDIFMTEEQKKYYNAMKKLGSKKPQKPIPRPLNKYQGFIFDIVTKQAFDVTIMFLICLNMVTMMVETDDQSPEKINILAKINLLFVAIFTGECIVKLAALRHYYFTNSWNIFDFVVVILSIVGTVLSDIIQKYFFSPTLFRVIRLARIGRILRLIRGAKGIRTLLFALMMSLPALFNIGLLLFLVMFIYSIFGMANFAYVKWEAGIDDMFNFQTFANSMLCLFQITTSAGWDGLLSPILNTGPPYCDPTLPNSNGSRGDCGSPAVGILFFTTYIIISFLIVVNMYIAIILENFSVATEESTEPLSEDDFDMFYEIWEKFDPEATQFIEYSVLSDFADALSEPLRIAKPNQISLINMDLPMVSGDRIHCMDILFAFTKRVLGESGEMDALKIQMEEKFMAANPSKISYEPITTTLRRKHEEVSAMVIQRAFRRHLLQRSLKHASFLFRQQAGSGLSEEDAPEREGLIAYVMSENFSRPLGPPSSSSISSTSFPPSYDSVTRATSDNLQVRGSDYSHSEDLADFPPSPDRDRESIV
Cannabinoid receptor 1, sequence (P21554 whole entry): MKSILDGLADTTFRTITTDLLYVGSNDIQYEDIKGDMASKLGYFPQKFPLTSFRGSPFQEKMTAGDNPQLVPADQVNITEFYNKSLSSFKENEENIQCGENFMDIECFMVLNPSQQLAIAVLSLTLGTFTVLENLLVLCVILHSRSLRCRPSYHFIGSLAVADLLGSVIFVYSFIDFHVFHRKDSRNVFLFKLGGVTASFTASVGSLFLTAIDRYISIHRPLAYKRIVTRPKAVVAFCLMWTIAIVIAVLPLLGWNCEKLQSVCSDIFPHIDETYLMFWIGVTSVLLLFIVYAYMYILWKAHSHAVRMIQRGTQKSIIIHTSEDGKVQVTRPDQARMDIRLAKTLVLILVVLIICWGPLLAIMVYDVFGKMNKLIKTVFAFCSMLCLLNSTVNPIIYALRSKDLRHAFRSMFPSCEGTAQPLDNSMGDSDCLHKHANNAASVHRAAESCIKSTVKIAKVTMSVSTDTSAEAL
Substance-P receptor, sequence (P25103 whole entry): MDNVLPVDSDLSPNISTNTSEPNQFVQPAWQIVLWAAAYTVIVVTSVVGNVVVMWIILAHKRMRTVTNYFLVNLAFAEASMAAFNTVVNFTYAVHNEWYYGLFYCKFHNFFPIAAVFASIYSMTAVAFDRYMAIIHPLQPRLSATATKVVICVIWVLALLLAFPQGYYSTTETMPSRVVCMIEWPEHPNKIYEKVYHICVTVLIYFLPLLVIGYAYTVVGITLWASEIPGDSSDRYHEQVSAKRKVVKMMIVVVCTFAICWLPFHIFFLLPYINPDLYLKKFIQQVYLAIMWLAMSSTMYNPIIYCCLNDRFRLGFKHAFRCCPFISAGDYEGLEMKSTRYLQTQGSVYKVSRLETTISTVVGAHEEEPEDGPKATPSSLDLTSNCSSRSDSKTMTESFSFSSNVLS
D(1A) dopamine receptor, sequence (P21728 whole entry): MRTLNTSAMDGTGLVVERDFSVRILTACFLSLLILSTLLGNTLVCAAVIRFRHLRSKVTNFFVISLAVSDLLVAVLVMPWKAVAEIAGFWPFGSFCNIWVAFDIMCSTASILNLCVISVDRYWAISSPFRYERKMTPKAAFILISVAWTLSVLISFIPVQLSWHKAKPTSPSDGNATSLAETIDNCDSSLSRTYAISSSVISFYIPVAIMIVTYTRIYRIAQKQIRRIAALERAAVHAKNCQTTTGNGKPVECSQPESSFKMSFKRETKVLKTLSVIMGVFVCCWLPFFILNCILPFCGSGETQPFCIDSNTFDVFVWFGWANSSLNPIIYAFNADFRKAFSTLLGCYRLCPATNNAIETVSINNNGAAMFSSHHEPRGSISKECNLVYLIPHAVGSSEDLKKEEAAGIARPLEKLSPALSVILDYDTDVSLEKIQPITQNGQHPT
5-hydroxytryptamine receptor 7, sequence (P34969 whole entry): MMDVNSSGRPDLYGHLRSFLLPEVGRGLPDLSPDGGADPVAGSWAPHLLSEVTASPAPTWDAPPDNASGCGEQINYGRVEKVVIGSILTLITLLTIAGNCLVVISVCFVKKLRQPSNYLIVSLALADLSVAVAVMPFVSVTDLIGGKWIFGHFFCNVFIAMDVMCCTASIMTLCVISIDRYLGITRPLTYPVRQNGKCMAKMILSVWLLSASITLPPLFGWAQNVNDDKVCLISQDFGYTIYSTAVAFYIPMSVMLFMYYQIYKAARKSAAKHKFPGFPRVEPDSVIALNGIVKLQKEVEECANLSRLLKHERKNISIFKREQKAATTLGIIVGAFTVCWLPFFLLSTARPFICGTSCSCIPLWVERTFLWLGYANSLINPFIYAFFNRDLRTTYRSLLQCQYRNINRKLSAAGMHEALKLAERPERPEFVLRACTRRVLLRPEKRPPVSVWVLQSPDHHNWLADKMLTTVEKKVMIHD

As to `N[C@@H](CC(=O)N1CCn2c(nnc2C(F)(F)F)C1)Cc1cc(F)c(F)cc1F` [SITAGLIPTIN], the half-maximal activity concentration (AC50) in assay [1] is above 10 µM; at D(4) dopamine receptor, above 10 µM; on Androgen receptor, above 30 µM; at Estrogen receptor, above 30 µM; at D(1A) dopamine receptor, above 10 µM; in assay [2], above 150 µM. Also, the concentration at half-maximal activity (AC50) on Cannabinoid receptor 1 and on Substance-P receptor was above 10 µM in each case.

As to `C=CC[C@@H]1/C=C(\C)C[C@H](C)C[C@H](OC)[C@H]2O[C@@](O)(C(=O)C(=O)N3CCCC[C@H]3C(=O)O[C@H](/C(C)=C/[C@@H]3CC[C@@H](O)[C@H](OC)C3)[C@H](C)[C@@H](O)CC1=O)[C@H](C)C[C@@H]2OC` [TACROLIMUS ANHYDROUS], the AC50 in assay [1] is above 10 µM; in [3], above 30 µM; at D(4) dopamine receptor, above 10 µM; on Androgen receptor, above 30 µM; on Estrogen receptor it was above 30 µM; at D(1A) dopamine receptor it was above 10 µM. Moreover, the half-maximal activity concentration (AC50) is 45 µM and > 30 µM in assay [2]; above 10 µM at Cannabinoid receptor 1; above 10 µM on Substance-P receptor.

Broadly, the AC50 is the midpoint of the concentration-response curve, whichever way the signal moves. Low values mean greater potency, high ones weaker potency.
